Data as given in patent EP1321493A1, “Method for enhancing the solubility of a colorant” (DSM N.V., priority 2001, dated 2003).

Key:
[1] = according to The Sigma-Aldrich Handbook of Stains, Dyes and Indicators; cited from earlier work
[2] = Solubility / concentration of colorant in toluene; format: physicochemical; settings: pure colorant

| SMILES | maximum solubility of the pure dye in water [1] | solubility in toluene (in words) [2] |
| --- | --- | --- |
| CCN(CC)c1ccc(C(=C2C=CC(=[N+](CC)CC)C=C2)c2ccc(S(=O)(=O)[O-])cc2S(=O)(=O)[O-])cc1.[Na+] [Acid Blue 1] | 3,0% | – |
| O=C1/C(=C2\Nc3ccc(S(=O)(=O)[O-])cc3C2=O)Nc2ccc(S(=O)(=O)[O-])cc21.[Na+].[Na+] [Acid Blue 74] | 0.3% | – |
| Cl.Cl.Nc1ccc(N=Nc2cccc(N=Nc3ccc(N)cc3N)c2)c(N)c1 [Basic Brown 1] | – | insoluble |
| CC1(C)Nc2cccc3c(N=Nc4ccc(N=Nc5ccccc5)c5ccccc45)ccc(c23)N1 [Solvent Black 3] | 0.01% | – |
